Assay results as given in patent US8937188B2, “Process for the preparation of lasofoxifene tartrate” (Glenmark Generics Ltd., priority 2009, dated 2015).

melting point: 71 to 75 °C
Structure (SMILES): COc1ccc2c(c1)CCC=C2c1ccc(OCCN2CCCC2)cc1 [Example 1, 1-{2-[4-(6-Methoxy-3,4-dihydronaphthalene-1-yl)phenoxy]ethyl}pyrrolidine]
